Measured values taken from ChEMBL document CHEMBL5126592, “Design, synthesis and activity against drug-resistant bacteria evaluation of C-20, C-23 modified 5-O-mycaminosyltylonolide derivatives” (Eur J Med Chem, 2022).
Converted amounts (≈) assume the structure as drawn.

Experiments:
Assay type in all cases: functional
Conditions in all cases: time 16-20 hrs
Klebsiella pneumoniae = test: Antibacterial activity against Klebsiella pneumoniae ATCC 13883 incubated for 16 to 20 hrs by broth microdilution method
Escherichia coli = test: Antibacterial activity against Escherichia coli ATCC 25922 incubated for 16 to 20 hrs by broth microdilution method
Staphylococcus aureus = test: Antibacterial activity against Staphylococcus aureus ATCC 25923 incubated for 16 to 20 hrs by broth microdilution method
Cronobacter sakazakii = test: Antibacterial activity against Cronobacter sakazakii ATCC 29544 incubated for 16 to 20 hrs by broth microdilution method

Compound	MIC (Klebsiella pneumoniae)	MIC (Escherichia coli)	MIC (Staphylococcus aureus)	MIC (Cronobacter sakazakii)
CC[C@H]1OC(=O)C[C@@H](O)[C@H](C)[C@@H](O[C@@H]2O[C@H](C)[C@@H](O)[C@H](N(C)C)[C@H]2O)[C@@H](CCN(Cc2ccc(C(C)C)cc2)Cc2cn(-c3cnc4ccccc4c3)nn2)C[C@@H](C)C(=O)/C=C/C(C)=C/[C@@H]1CO	32 µg/mL (≈ 34.1 µM)	16 µg/mL (≈ 17 µM)	0.5 µg/mL (≈ 0.532 µM)	32 µg/mL (≈ 34.1 µM)
CC[C@H]1OC(=O)C[C@@H](O)[C@H](C)[C@@H](O[C@@H]2O[C@H](C)[C@@H](O)[C@H](N(C)C)[C@H]2O)[C@@H](CCN(Cc2cn(-c3cnc4ccccc4c3)nn2)Cc2cccs2)C[C@@H](C)C(=O)/C=C/C(C)=C/[C@@H]1CO	16 µg/mL (≈ 17.7 µM)	16 µg/mL (≈ 17.7 µM)	0.125 µg/mL (≈ 0.138 µM)	32 µg/mL (≈ 35.4 µM)
CC[C@H]1OC(=O)C[C@@H](O)[C@H](C)[C@@H](O[C@@H]2O[C@H](C)[C@@H](O)[C@H](N(C)C)[C@H]2O)[C@@H](CCN(Cc2ccc(N(C)C)cc2)Cc2cn(-c3cnc4ccccc4c3)nn2)C[C@@H](C)C(=O)/C=C/C(C)=C/[C@@H]1CO	16 µg/mL (≈ 17 µM)	8 µg/mL (≈ 8.51 µM)	0.25 µg/mL (≈ 0.266 µM)	16 µg/mL (≈ 17 µM)
CC[C@H]1OC(=O)C[C@@H](O)[C@H](C)[C@@H](O[C@@H]2O[C@H](C)[C@@H](O)[C@H](N(C)C)[C@H]2O)[C@@H](CCN(Cc2cn(-c3cnc4ccccc4c3)nn2)Cc2nccs2)C[C@@H](C)C(=O)/C=C/C(C)=C/[C@@H]1CO	32 µg/mL (≈ 35.4 µM)	32 µg/mL (≈ 35.4 µM)	0.5 µg/mL (≈ 0.553 µM)	32 µg/mL (≈ 35.4 µM)
CC[C@H]1OC(=O)C[C@@H](O)[C@H](C)[C@@H](O[C@@H]2O[C@H](C)[C@@H](O)[C@H](N(C)C)[C@H]2O)[C@@H](CCN(Cc2ccccc2)Cc2cn(-c3cnc4ccccc4c3)nn2)C[C@@H](C)C(=O)/C=C/C(C)=C/[C@@H]1CN(CC)CC	8 µg/mL (≈ 8.4 µM)	8 µg/mL (≈ 8.4 µM)	0.25 µg/mL (≈ 0.263 µM)	8 µg/mL (≈ 8.4 µM)
CC[C@H]1OC(=O)C[C@@H](O)[C@H](C)[C@@H](O[C@@H]2O[C@H](C)[C@@H](O)[C@H](N(C)C)[C@H]2O)[C@@H](CCN(Cc2ccc(C(F)(F)F)cc2)Cc2cn(-c3cnc4ccccc4c3)nn2)C[C@@H](C)C(=O)/C=C/C(C)=C/[C@@H]1CN(CC)CC	8 µg/mL (≈ 7.84 µM)	4 µg/mL (≈ 3.92 µM)	1 µg/mL (≈ 0.98 µM)	16 µg/mL (≈ 15.7 µM)
CC[C@H]1OC(=O)C[C@@H](O)[C@H](C)[C@@H](O[C@@H]2O[C@H](C)[C@@H](O)[C@H](N(C)C)[C@H]2O)[C@@H](CCN(Cc2cn(-c3cnc4ccccc4c3)nn2)Cc2c(OC)cc(OC)cc2OC)C[C@@H](C)C(=O)/C=C/C(C)=C/[C@@H]1CO	32 µg/mL (≈ 32.4 µM)	16 µg/mL (≈ 16.2 µM)	0.5 µg/mL (≈ 0.506 µM)	32 µg/mL (≈ 32.4 µM)
CC[C@H]1OC(=O)C[C@@H](O)[C@H](C)[C@@H](O[C@@H]2O[C@H](C)[C@@H](O)[C@H](N(C)C)[C@H]2O)[C@@H](CCN(Cc2cn(-c3cnc4ccccc4c3)nn2)Cc2ccco2)C[C@@H](C)C(=O)/C=C/C(C)=C/[C@@H]1CO	16 µg/mL (≈ 18 µM)	8 µg/mL (≈ 9.02 µM)	0.125 µg/mL (≈ 0.141 µM)	32 µg/mL (≈ 36.1 µM)

More lines, now with the values ahead:

MIC (Klebsiella pneumoniae)	MIC (Escherichia coli)	MIC (Staphylococcus aureus)	MIC (Cronobacter sakazakii)	Compound
4 µg/mL (≈ 4.13 µM)	4 µg/mL (≈ 4.13 µM)	1 µg/mL (≈ 1.03 µM)	8 µg/mL (≈ 8.26 µM)	CC[C@H]1OC(=O)C[C@@H](O)[C@H](C)[C@@H](O[C@@H]2O[C@H](C)[C@@H](O)[C@H](N(C)C)[C@H]2O)[C@@H](CCN(Cc2cn(-c3cnc4ccccc4c3)nn2)Cc2ccco2)C[C@@H](C)C(=O)/C=C/C(C)=C/[C@@H]1CN1CCCCCC1
8 µg/mL (≈ 8.38 µM)	8 µg/mL (≈ 8.38 µM)	1 µg/mL (≈ 1.05 µM)	32 µg/mL (≈ 33.5 µM)	CC[C@H]1OC(=O)C[C@@H](O)[C@H](C)[C@@H](O[C@@H]2O[C@H](C)[C@@H](O)[C@H](N(C)C)[C@H]2O)[C@@H](CCN(Cc2ccc(OC)cc2)Cc2cn(-c3cnc4ccccc4c3)nn2)C[C@@H](C)C(=O)/C=C/C(C)=C/[C@@H]1CN(C)C
8 µg/mL (≈ 9.13 µM)	8 µg/mL (≈ 9.13 µM)	0.5 µg/mL (≈ 0.571 µM)	16 µg/mL (≈ 18.3 µM)	CC[C@H]1OC(=O)C[C@@H](O)[C@H](C)[C@@H](O[C@@H]2O[C@H](C)[C@@H](O)[C@H](N(C)C)[C@H]2O)[C@@H](CCN(C)Cc2cn(-c3cnc4ccccc4c3)nn2)C[C@@H](C)C(=O)/C=C/C(C)=C/[C@@H]1CN(C)C(C)C
4 µg/mL (≈ 4.09 µM)	4 µg/mL (≈ 4.09 µM)	1 µg/mL (≈ 1.02 µM)	8 µg/mL (≈ 8.18 µM)	CC[C@H]1OC(=O)C[C@@H](O)[C@H](C)[C@@H](O[C@@H]2O[C@H](C)[C@@H](O)[C@H](N(C)C)[C@H]2O)[C@@H](CCN(Cc2ccccc2)Cc2cn(-c3cnc4ccccc4c3)nn2)C[C@@H](C)C(=O)/C=C/C(C)=C/[C@@H]1CN1CCCCCC1
8 µg/mL (≈ 8.04 µM)	4 µg/mL (≈ 4.02 µM)	0.5 µg/mL (≈ 0.502 µM)	16 µg/mL (≈ 16.1 µM)	CC[C@H]1OC(=O)C[C@@H](O)[C@H](C)[C@@H](O[C@@H]2O[C@H](C)[C@@H](O)[C@H](N(C)C)[C@H]2O)[C@@H](CCN(Cc2ccc(N(C)C)cc2)Cc2cn(-c3cnc4ccccc4c3)nn2)C[C@@H](C)C(=O)/C=C/C(C)=C/[C@@H]1CN(CC)CC
8 µg/mL (≈ 9.28 µM)	8 µg/mL (≈ 9.28 µM)	1 µg/mL (≈ 1.16 µM)	8 µg/mL (≈ 9.28 µM)	CC[C@H]1OC(=O)C[C@@H](O)[C@H](C)[C@@H](O[C@@H]2O[C@H](C)[C@@H](O)[C@H](N(C)C)[C@H]2O)[C@@H](CCN(C)Cc2cn(-c3cnc4ccccc4c3)nn2)C[C@@H](C)C(=O)/C=C/C(C)=C/[C@@H]1CN(C)CC
